Data as given in patent USRE49850E1, “N-(pyridin-2-yl)-4-(thiazol-5-yl)pyrimidin-2-amine derivatives as therapeutic compounds” (AUCENTRA THERAPEUTICS PTY LTD, priority 2015, dated 2024).

Legend:
[1] = biological target: T1, CDK4D1 (Homo sapiens, UniProt P11802); assay: Kinase assay CDK4/D1 (radiometric or ADP Glo); format: biochemical; conditions: apparent Ki calculated from Km (ATP) and IC50; read-out: CDK inhibition Ki CDK4D1
T1 construct: purchased Eurofins Pharma Discovery or Reaction Biology Corporation (service)
Experimental: (§1) Eurofins Pharma Discovery or Reaction Biology Corporation Kinase Profiler services were used to measure inhibition of CDKs and other kinases by radiometric assay. Inhibition of CDK4/D1, CDK6/D3 and CDK9/T1 were also determined in-house using ADP Glo Kinase assays (Promega Corporation, Madison, USA). Briefly, the kinase reaction for CDK4/D1 and CDK6/D3 was performed with kinase reaction buffer ([…] Tris base pH 7.5, 20 mM MgCl2, 0.4 mM DTT), 0.1 mg/ml BSA and RB-CTF substrate (retinoblastoma protein1 C-terminal fraction). For CDK9/CyclinT1, the kinase reaction was performed with standard assay buffer and Kinase Dilution Buffer and RBER-IRStide substrate. Serial dilutions of 1:3 were prepared for test compounds for 10 concentrations (from 10 μM to 0.5 nM). The kinase reactions were started by addition of ATP, incubated for 40 min at 37° C. and then stopped by adding 10 μL of ADP Glo reagent. After incubation at room temperature in the dark for 40 min, 20 μL of kinase detection reagent was added per well and incubated for 40 min. Luminescence was measured using an EnVision Multilabel plate reader (PerkinElmer, Buckinghamshire, UK). Positive and negative controls were perfonned in the presence and absence of CDK kinases, respectively. Half-maximal inhibition (IC50) values were calculated using a 4-parameter logistic non-linear regression model with Graphpad prism (Version 6.0). Apparent inhibition constants (Ki) values were calculated from Km (ATP) and IC50 values for the respective kinases.

[2] = tested on: MDA-MB-453; assay: Cell viability assay (MTT, solid tumour cell line) MDA-MB-453; format: cell-based, human; conditions: Homo sapiens, MDA-MB-453, 72 h; read-out: Anti-proliferative activity GI50 MDA-MB-453
Source text: (§2) Compounds from Example 1 were subjected to a standard MTT (3-(4,5-dimethylthiazol-2-yl)-2,5-diphenyltetrazolium bromide) and resazurin assays on solid tumour cell lines and leukemia cell lines, respectively, as previously reported (Wang S et al., J Med Chem 47:1662-1675, 2004 and Diab S. et al. CheMedChem 9:962-972, 2014).

[3] = tested on: MV4-11; assay: Cell viability assay (resazurin, leukemia cell line) MV4-11; format: cell-based, human; conditions: Homo sapiens, MV4-11, 72 h; read-out: Anti-proliferative activity GI50 MV4-11
Source text: as §2

[4] = biological target: T2, CDK9T1 (Homo sapiens, UniProt P50750); assay: Kinase assay CDK9/T1 (radiometric or ADP Glo); format: biochemical; conditions: apparent Ki calculated from Km (ATP) and IC50; read-out: CDK inhibition Ki CDK9T1
T2 construct: purchased Eurofins Pharma Discovery or Reaction Biology Corporation (service)
Experimental: as §1

[5] = biological target: CDK 2A (Homo sapiens, UniProt P24941); assay: Kinase assay CDK2A (radiometric profiling service); format: biochemical; conditions: apparent Ki calculated from Km (ATP) and IC50; read-out: CDK inhibition Ki CDK 2A
Experimental: as §1

[6] = biological target: CDK1B (Homo sapiens, UniProt P06493); assay: Kinase assay CDK1B (radiometric profiling service); format: biochemical; conditions: apparent Ki calculated from Km (ATP) and IC50; read-out: CDK inhibition Ki CDK1B
Experimental: as §1

[7] = biological target: T3, CDK6D3 (Homo sapiens, UniProt Q00534); assay: Kinase assay CDK6/D3 (radiometric or ADP Glo); format: biochemical; conditions: apparent Ki calculated from Km (ATP) and IC50; read-out: CDK inhibition Ki CDK6D3
T3 construct: purchased Eurofins Pharma Discovery or Reaction Biology Corporation (service)
Experimental: as §1

T2 sequence (P50750 whole entry): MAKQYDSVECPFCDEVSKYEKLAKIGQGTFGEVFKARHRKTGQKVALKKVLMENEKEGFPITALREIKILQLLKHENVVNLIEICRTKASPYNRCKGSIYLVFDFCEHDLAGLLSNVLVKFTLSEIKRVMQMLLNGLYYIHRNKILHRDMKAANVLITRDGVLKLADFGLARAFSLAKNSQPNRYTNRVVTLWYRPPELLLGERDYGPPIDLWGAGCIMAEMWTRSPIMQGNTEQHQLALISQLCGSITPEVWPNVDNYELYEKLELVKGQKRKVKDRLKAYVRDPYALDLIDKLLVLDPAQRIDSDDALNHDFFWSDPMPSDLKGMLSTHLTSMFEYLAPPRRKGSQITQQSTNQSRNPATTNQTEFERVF
T2 sequence (O60563 whole entry partner): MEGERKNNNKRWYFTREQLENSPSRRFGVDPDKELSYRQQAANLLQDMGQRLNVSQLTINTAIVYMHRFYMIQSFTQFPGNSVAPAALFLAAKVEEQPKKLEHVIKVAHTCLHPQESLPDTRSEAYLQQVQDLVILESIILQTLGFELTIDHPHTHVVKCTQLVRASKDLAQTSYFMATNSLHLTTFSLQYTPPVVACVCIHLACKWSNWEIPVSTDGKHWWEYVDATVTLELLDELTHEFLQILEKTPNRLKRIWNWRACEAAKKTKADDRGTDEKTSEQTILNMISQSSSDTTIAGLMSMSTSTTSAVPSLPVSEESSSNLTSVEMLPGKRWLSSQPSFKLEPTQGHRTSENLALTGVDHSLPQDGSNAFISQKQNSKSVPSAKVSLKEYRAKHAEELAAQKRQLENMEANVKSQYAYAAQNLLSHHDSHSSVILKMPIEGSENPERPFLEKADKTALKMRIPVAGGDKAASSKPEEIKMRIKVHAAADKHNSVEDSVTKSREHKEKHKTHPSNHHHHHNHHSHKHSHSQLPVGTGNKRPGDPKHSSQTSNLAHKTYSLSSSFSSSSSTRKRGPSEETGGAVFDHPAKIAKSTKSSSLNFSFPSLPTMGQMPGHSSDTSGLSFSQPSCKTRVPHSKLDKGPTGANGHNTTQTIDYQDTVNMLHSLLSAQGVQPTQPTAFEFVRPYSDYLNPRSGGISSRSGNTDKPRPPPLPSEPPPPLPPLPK
T3 sequence (Q00534 whole entry): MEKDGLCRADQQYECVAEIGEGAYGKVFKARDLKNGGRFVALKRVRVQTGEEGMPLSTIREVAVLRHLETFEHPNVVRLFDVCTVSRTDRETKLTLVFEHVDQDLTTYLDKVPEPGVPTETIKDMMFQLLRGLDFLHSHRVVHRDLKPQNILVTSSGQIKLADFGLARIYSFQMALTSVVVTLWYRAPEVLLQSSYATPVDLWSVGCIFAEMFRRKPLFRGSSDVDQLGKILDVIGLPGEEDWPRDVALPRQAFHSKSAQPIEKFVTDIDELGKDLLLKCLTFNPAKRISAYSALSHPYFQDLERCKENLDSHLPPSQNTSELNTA
T3 sequence (P30281 whole entry partner): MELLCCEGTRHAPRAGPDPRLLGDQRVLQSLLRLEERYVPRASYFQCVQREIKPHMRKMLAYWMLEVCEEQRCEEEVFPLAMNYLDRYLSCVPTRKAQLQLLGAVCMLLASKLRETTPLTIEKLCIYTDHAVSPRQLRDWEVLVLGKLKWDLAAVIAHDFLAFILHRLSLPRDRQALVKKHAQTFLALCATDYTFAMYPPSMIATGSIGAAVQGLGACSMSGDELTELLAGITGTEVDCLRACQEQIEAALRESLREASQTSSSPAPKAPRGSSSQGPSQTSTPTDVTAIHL
T1 sequence (P11802 whole entry): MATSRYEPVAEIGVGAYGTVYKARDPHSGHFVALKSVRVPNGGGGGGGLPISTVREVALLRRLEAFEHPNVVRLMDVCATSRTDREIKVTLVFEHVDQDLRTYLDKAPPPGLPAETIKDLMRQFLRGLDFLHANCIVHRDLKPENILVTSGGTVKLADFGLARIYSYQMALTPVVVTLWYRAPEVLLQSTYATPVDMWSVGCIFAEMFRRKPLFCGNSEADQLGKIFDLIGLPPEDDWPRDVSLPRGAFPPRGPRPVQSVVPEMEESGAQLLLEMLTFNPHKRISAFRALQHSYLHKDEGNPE
T1 sequence (P24385 whole entry partner): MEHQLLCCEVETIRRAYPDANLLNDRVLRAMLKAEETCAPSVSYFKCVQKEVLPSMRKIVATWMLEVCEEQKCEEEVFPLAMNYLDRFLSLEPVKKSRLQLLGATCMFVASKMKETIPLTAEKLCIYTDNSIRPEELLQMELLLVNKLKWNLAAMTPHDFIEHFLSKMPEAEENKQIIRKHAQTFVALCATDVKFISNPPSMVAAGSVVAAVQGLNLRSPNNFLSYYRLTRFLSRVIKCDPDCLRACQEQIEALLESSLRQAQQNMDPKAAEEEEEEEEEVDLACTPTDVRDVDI
CDK1B, sequence (P06493 whole entry): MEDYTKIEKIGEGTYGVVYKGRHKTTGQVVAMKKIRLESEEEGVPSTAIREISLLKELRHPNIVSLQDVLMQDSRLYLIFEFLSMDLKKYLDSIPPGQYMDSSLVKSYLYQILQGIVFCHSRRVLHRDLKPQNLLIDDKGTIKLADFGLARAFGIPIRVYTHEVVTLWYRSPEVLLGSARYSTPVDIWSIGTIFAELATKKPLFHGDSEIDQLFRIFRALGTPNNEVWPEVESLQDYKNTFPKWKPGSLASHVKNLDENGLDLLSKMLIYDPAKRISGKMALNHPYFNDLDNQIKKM
CDK1B, sequence (P14635 whole entry partner): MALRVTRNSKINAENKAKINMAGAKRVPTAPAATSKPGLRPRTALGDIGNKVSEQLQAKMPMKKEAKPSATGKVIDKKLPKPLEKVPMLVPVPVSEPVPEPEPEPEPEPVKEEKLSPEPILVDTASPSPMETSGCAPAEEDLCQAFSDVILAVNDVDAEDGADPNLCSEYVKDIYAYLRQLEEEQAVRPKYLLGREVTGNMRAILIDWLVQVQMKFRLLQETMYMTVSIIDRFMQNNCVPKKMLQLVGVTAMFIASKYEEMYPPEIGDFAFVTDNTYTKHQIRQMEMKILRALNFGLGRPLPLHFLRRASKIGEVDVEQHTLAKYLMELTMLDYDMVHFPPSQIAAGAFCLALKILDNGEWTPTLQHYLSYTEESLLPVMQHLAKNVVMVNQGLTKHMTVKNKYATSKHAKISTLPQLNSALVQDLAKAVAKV

Ki [1]	GI50 [2]	GI50 [3]	Ki [4]	Ki [5]	Ki [6]	Ki [7]	Compound
0.002 µM	0.066 ± 0.019 µM	0.013 ± 0.002 µM	> 5 µM	0.349 µM	> 5 µM	0.006 µM	CCN1CCN(c2ccc(Nc3ncc(F)c(-c4sc(NC5CCCC5)nc4C)n3)nc2)CC1 [Compound 67, N-cyclopentyl-5-(2-((5-(4-ethylpiperazin-1-yl)pyridin-2-yl)amino)-5-fluoropyrimidin-4-yl)-4-methylthiazol-2-amine]
0.006 µM	0.591 ± 0.256 µM	0.024 ± 0.028 µM	0.286 µM	0.776 µM	3.25 µM	0.093 µM	CC(=O)N1CCN(c2ccc(Nc3nccc(-c4sc(NC5CCCC5)nc4C)n3)nc2)CC1 [Compound 68, 1-(4-(6-((4-(2-(Cyclopentylamino)-4-methylthiazol-5-yl)pyrimidin-2-yl)amino)pyridin-3-yl)piperazin-1-yl) ethan-1-one]
0.004 µM	0.077 ± 0.001 µM	0.012 ± 0.001 µM	> 5 µM	0.014 µM	0.297 µM	0.006 µM	CC(=O)N1CCN(c2ccc(Nc3nccc(-c4sc(NC5CCCC5)nc4C(F)(F)F)n3)nc2)CC1 [Compound 70, 1-(4-(6-((4-(2-(cyclopentylamino)-4-(trifluoromethyl)thiazol-5-yl)pyrimidin-2-yl)amino)pyridin-3-yl)piperazin-1-yl)ethan-1-one]
0.003 µM	0.055 ± 0.012 µM	0.022 ± 0.002 µM	0.173 µM	0.181 µM	1.23 µM	0.133 µM	Cc1nc(NC2CCCC2)sc1-c1ccnc(Nc2ccc(N3CCC(N)CC3)cn2)n1 [Compound 74, 5-(2-((5-(4-aminopiperidin-1-yl)pyridin-2-yl)amino)pyrimidin-4-yl)-N-cyclopentyl-4-methylthiazol-2-amine]
0.001 µM	0.102 ± 0.117 µM	0.029 ± 0.002 µM	0.508 µM	0.278 µM	4.07 µM	0.008 µM	Cc1nc(NC2CCCC2)sc1-c1ccnc(Nc2ccc(N3CCCNCC3)cn2)n1 [Compound 76, 5-(2-((5-(1,4-diazepan-1-yl)pyridin-2-yl)amino)pyrimidin-4-yl)-N-cyclopentyl-4-methylthiazol-2-amine]
	0.215 ± 0.052 µM	0.176 ± 0.009 µM					Cc1nc(NC2CCCC2)sc1-c1ccnc(Nc2ccc(N3CCN(S(C)(=O)=O)CC3)cn2)n1 [Compound 77]
0.57 µM	4.38 ± 0.691 µM	0.3 ± 0.035 µM	> 5 µM				Cc1nc(NC2CCCC2)sc1-c1ccnc(Nc2ccccn2)n1 [Compound 78, N-cyclopentyl-4-methyl-5-(2-(pyridin-2-ylamino)pyrimidin-4-yl)thiazol-2-amine]
0.011 µM	0.336 ± 0.188 µM	0.004 ± 0.001 µM	> 5 µM	0.015 µM	0.345 µM	0.007 µM	O=CN1CCN(c2ccc(Nc3nccc(-c4sc(NC5CCCC5)nc4C(F)(F)F)n3)nc2)CC1 [Compound 79, 4-(6-((4-(2-(cyclopentylamino)-4-(trifluoromethyl)thiazol-5-yl)pyrimidin-2-yl)amino)pyridin-3-yl)piperazine-1-carbaldehyde]
0.014 µM	0.083 ± 0.009 µM	0.029 ± 0.002 µM	0.679 µM	0.417 µM	> 5 µM	0.01 µM	Cc1nc(NC2CCCC2)sc1-c1nc(Nc2ccc(N3CCCNCC3)cn2)ncc1F [Compound 81, 5-(2-((5-(1,4-diazepan-1-yl)pyridin-2-yl)amino)-5-fluoropyrimidin-4-yl)-N-cyclopentyl-4-methylthiazol-2-amine]
	0.004 ± 0.002 µM	0.019 ± 0.003 µM	1.98 µM		> 5 µM		CCN1CCN(Cc2ccc(Nc3nccc(-c4sc(NC5CCCC5)nc4C)n3)nc2)CC1 [Compound 83, N-cyclopentyl-5-(2-((5-((4-ethylpiperazin-1-yl)methyl)pyridin-2-yl)amino)pyrimidin-4-yl)-4-methylthiazol-2-amine]

More lines, now with the values behind:

Compound	Ki [1]	GI50 [2]	GI50 [3]	Ki [4]	Ki [5]	Ki [6]	Ki [7]
CNc1nc(C)c(-c2nc(Nc3ccc(N4CCCCC4)cn3)ncc2F)s1 [Compound 51, 5-(5-fluoro-2-((5-(piperidin-1-yl)pyridin-2-yl)amino)pyrimidin-4-yl)-N,4-dimethylthiazol-2-amine]	> 5 µM	0.463 ± 0.075 µM	0.606 ± 0.038 µM				
CNc1nc(C)c(-c2nc(Nc3ccccn3)ncc2F)s1 [Compound 54, 5-(5-fluoro-2-(pyridin-2-ylamino)pyrimidin-4-yl)-N,4-dimethylthiazol-2-amine]	> 5 µM	2.94 ± 0.507 µM	2.16 ± 0.431 µM				
Cc1nc(NC(C)C)sc1-c1ccnc(Nc2ccc(N3CCNCC3)cn2)n1 [Compound 55, N-isopropyl-4-methyl-5-(2-((5-(piperazin-1-yl)pyridin-2-yl)amino)pyrimidin-4-yl)thiazol-2-amine]	0.005 µM	0.031 ± 0.002 µM	0.093 ± 0.01 µM	2.42 µM	0.24 µM	3.14 µM	0.011 µM
Cc1nc(NC(C)C)sc1-c1ccnc(Nc2ccc(N3CCN(C)CC3)cn2)n1 [Compound 56, N-isopropyl-4-methyl-5-(2-((5-(4-methylpiperazin-1-yl)pyridin-2-yl)amino)pyrimidin-4-yl)thiazol-2-amine]	0.003 µM	0.618 ± 0.193 µM	0.075 ± 0.005 µM	0.773 µM	0.399 µM	3.81 µM	0.015 µM
CC(=O)N1CCN(c2ccc(Nc3nccc(-c4sc(NC(C)C)nc4C)n3)nc2)CC1 [Compound 57, 1-(4-(6-((4-(2-(isopropylamino)-4-methylthiazol-5-yl)pyrimidin-2-yl)amino)pyridin-3-yl)piperazin-1-yl)ethan-1-one]	0.021 µM	0.344 ± 0.126 µM	2.07 ± 0.321 µM	3.72 µM	0.2 µM	2.69 µM	0.105 µM
Cc1nc(NC(C)C)sc1-c1ccnc(Nc2ccc(N3CCCNCC3)cn2)n1 [Compound 59, 5-(2-((5-(1,4-diazepan-1-yl)pyridin-2-yl)amino)pyrimidin-4-yl)-N-isopropyl-4-methylthiazol-2-amine]	0.016 µM	0.938 ± 0.068 µM	0.255 ± 0.085 µM	0.925 µM	0.8 µM	> 5 µM	0.028 µM
Cc1nc(NC2CCCC2)sc1-c1nc(Nc2ccc(N3CCNCC3)cn2)ncc1F [Compound 61, N-cyclopentyl-5-(5-fluoro-2-((5-(piperazin-1-yl)pyridin-2-yl)amino)pyrimidin-4-yl)-4-methylthiazol-2-amine]	0.003 µM	0.78 ± 0.598 µM	0.053 ± 0.004 µM	0.787 µM	0.256 µM	2.24 µM	0.007 µM
FC(F)(F)c1nc(NC2CCCC2)sc1-c1ccnc(Nc2ccc(N3CCNCC3)cn2)n1 [Compound 62, N-cyclopentyl-5-(2-((5-(piperazin-1-yl)pyridin-2-yl)amino)pyrimidin-4-yl)-4-(trifluoromethyl)thiazol-2-amine]	0.008 µM	0.081 ± 0.039 µM	0.002 ± 0.001 µM	0.258 µM	0.022 µM	0.22 µM	0.002 µM
Cc1nc(NC2CCCC2)sc1-c1ccnc(Nc2ccc(N3CCN(C)CC3)cn2)n1 [Compound 63, N-cyclopentyl-4-methyl-5-(2-((5-(4-methylpiperazin-1-yl)pyridin-2-yl)amino)pyrimidin-4-yl)thiazol-2-amine]	0.002 µM	0.13 ± 0.011 µM	0.009 µM	0.18 µM	0.206 µM	2.68 µM	0.009 µM
CN1CCN(c2ccc(Nc3nccc(-c4sc(NC5CCCC5)nc4C(F)(F)F)n3)nc2)CC1 [Compound 65, N-cyclopentyl-5-(2-((5-(4-methylpiperazin-1-yl)pyridin-2-yl)amino)pyrimidin-4-yl)-4-(trifluoromethyl)thiazol-2-amine]	0.001 µM	0.42 ± 0.12 µM	0.001 ± 0.001 µM	0.831 µM	0.022 µM	0.241 µM	0.003 µM
